# Test results taken from ChEMBL document CHEMBL4732045, “Amide Bond Bioisosteres: Strategies, Synthesis, and Successes” (J Med Chem, 2020).
# Square brackets hold non-standard residues; d marks the D form. Peptide text beside a SMILES is read from it. PhLac = O=C(O)[C@@H](O)Cc1ccccc1
# Assays:
# Integrin alpha-4/beta-1 = Integrin alpha-4/beta-1 (Homo sapiens, UniProt P05556+P13612); assay: Displacement of 125I-VCAM-Ig from VLA4 in human Jurkat cells incubated for 30 mins by scintillation counting method; assay type: cell-based
# HMEC-1 = assay: Growth inhibition of HMEC-1 incubated for 4 days by Coulter counter method; assay type: cell-based; conditions: Homo sapiens, HMEC-1, 96 h
# [1] = Growth inhibition of BAEC incubated for 3 days by Coulter counter method; conditions: Bos taurus, 72 h
# HeLa = assay: Antiproliferative activity against human HeLa cells incubated for 4 days by Coulter counter method; assay type: functional, cell-based; conditions: 96 h
# CCRF-CEM = assay: Antiproliferative activity against human CEM cells incubated for 96 hrs by Coulter counter method; assay type: functional, cell-based
# L1210 = assay: Antiproliferative activity against mouse L1210 cells incubated for 48 hrs by Coulter counter method; assay type: functional, cell-based; conditions: L1210, 48 h
# [2] = tested on: Poly(dA-dT)oligonucleotide; assay: Binding affinity to poly (dA-dT) (unknown origin) by ethidium displacement assay; assay type: nucleic-acid assay
# [3] = tested on: Poly(dG-dC)oligonucleotide; assay: Binding affinity to poly (dG-dC) (unknown origin) by ethidium displacement assay; assay type: nucleic-acid assay
# Neprilysin = Neprilysin (Homo sapiens, UniProt P08473); assay: Inhibition of NEP 24.11 (unknown origin) by fluorometric assay
# [4] = biological target: D(2) dopamine receptor (Bos taurus) (UniProt P20288); assay: Modulation of [3H]Spiroperidol/N-Propylnorapomorphine binding to dopamine D2 receptor in bovine striatal membranes incubated for 1 hr by Cheng-Prusoff analysis; assay type: cell membranes; conditions: Striatum, Membrane, filed as modulator
# [5] = biological target: D(2) dopamine receptor (Bos taurus) (UniProt P20288); assay: Modulation of [3H]Spiroperidol/N-Propylnorapomorphine binding to dopamine D2 receptor in bovine striatal membranes incubated for 1 hr in presence of Gpp(NH)p by Cheng-Prusoff analysis; assay type: cell membranes; conditions: Striatum, Membrane, filed as modulator
# [6] = Selectivity index, ratio of Ki for human CB1 receptor expressed in HEK cells to Ki for human CB2 receptor expressed in HEK cells
# Cannabinoid receptor 1 = Cannabinoid receptor 1 (Homo sapiens, UniProt P21554); assay: Displacement of [3H]CP-55940 from human CB1 receptor expressed in HEK cells by competitive binding assay; assay type: cell-based
# Cannabinoid receptor 2 = Cannabinoid receptor 2 (Homo sapiens, UniProt P34972); assay: Displacement of [3H]CP-55940 from human CB2 receptor expressed in HEK cells by competitive binding assay; assay type: cell-based
# Mus musculus [7] = assay: Immunosuppressive activity in B6D2F1 mouse model of graft-versus-host disease assessed as mean survival days at 3 mg/kg, ip administered for day 1 to day 10 (day 6 omitted) and measured at day 60; assay type: functional; conditions: time 60 day
# Mus musculus [8] = assay: Immunosuppressive activity in B6D2F1 mouse model of graft-versus-host disease assessed as mean survival days at 1 mg/kg, ip administered for day 1 to day 10 (day 6 omitted) and measured at day 60; assay type: functional; conditions: time 60 day
# Rattus norvegicus = assay: Immunosuppressive activity in Lewis rat model of Heart Allotransplantation assessed as mean survival days at 6 mg/kg, ip administered for 10 days by Manntel-Haenszel test; assay type: functional; conditions: time 10 day
# [9] = biological target: Delta-type opioid receptor (Mus musculus, UniProt P32300); assay: Inhibition of [3H]-Deltorphin 2 binding to mouse delta opioid receptor expressed in rat GH3 cell membranes by Cheng-Prusoff analysis; parameters: species or system Cell membrane
# [10] = Inhibition of ACAT in cholesterol-fed New Zealand rabbit intestional microsomes using [1-14C]oleoyl-CoA as substrate preincubated for 5 mins followed by substrate addition and measured after 5 mins by liquid scintillation counting method; parameters: species or system Oryctolagus cuniculus, Intestine, Microsome
# [11] = Half life in monkey at 10 mg/kg, po; assay type: ADME, organism-based, Macaca mulatta; conditions: rhesus monkey, in vivo
# [12] = Oral bioavailability in monkey at 10 mg/kg; assay type: ADME, organism-based, Macaca mulatta; conditions: rhesus monkey, in vivo
# [13] = biological target: Human immunodeficiency virus type 1 protease (Human immunodeficiency virus 1, UniProt Q72874); assay: Inhibition of HIV-1 protease
# MDA-MB-231 = assay: Antiproliferative activity against human MDA-MB-231 cells; assay type: functional, cell-based
# [14] = Inhibition of HIV2 protease; parameters: species or system Human immunodeficiency virus 2
# [15] = tested on: Human immunodeficiency virus 1; assay: Antiviral activity against HIV1 3b isolate infected in human MT4 cells assessed as blockade of viral spread pretreated for 24 hrs followed by viral infection and subsequently treated with compound every 2 to 3 days post infection by ELISA; assay type: functional; conditions: Human immunodeficiency virus 1, 3b isolate, read-out: CIC95
# Sequence of D(2) dopamine receptor (Bos taurus) (P20288 whole entry): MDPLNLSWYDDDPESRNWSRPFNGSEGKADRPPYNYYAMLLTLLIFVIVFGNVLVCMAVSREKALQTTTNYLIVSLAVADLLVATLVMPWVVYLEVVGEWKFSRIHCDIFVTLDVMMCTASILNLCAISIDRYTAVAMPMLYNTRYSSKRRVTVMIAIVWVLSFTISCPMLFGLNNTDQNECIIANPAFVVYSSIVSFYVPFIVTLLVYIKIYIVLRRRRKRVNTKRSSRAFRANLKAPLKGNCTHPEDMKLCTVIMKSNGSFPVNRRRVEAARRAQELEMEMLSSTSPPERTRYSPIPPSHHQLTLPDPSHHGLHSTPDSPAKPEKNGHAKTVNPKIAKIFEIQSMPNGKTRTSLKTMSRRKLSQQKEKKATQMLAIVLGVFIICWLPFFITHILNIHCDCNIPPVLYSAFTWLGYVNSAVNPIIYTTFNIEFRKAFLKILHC
# Sequence of Neprilysin (P08473 whole entry): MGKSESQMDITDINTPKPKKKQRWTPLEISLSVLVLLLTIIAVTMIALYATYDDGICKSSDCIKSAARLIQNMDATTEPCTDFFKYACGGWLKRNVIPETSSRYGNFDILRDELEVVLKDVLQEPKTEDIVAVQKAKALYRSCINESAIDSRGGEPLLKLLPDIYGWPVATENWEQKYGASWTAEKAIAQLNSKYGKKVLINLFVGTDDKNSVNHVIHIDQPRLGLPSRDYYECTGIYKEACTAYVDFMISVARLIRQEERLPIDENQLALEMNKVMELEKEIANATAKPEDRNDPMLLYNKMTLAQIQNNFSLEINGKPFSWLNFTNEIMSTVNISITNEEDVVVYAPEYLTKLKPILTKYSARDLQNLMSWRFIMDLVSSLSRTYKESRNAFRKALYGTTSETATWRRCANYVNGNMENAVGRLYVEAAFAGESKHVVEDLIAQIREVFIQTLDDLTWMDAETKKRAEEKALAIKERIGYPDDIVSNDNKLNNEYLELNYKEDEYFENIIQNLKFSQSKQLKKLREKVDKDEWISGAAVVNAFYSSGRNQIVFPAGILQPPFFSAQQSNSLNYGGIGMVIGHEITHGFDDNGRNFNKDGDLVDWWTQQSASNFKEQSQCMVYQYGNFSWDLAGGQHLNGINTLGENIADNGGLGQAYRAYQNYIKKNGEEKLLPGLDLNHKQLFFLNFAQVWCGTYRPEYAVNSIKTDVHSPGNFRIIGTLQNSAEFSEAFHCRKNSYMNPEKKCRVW
# Sequence of Delta-type opioid receptor (P32300 whole entry): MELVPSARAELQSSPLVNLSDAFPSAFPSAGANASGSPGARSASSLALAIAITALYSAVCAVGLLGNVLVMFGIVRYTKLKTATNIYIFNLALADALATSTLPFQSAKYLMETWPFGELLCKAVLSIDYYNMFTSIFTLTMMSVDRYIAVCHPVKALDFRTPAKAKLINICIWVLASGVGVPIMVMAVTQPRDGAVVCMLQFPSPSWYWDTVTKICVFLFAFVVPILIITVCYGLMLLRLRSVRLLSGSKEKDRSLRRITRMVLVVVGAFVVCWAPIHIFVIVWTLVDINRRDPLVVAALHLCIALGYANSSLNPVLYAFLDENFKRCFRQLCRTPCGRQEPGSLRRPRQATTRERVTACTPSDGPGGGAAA
# Sequence of Cannabinoid receptor 2 (P34972 whole entry): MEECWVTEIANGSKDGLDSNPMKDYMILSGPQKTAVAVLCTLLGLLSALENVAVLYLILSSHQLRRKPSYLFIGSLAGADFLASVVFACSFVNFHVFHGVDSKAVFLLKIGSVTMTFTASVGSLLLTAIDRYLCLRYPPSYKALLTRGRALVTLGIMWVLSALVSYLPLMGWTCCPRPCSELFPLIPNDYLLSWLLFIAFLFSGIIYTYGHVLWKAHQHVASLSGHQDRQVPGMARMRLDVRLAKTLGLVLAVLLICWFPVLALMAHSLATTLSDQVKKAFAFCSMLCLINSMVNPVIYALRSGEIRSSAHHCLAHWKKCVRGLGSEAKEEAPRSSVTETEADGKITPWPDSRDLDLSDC
# Sequence of Cannabinoid receptor 1 (P21554 whole entry): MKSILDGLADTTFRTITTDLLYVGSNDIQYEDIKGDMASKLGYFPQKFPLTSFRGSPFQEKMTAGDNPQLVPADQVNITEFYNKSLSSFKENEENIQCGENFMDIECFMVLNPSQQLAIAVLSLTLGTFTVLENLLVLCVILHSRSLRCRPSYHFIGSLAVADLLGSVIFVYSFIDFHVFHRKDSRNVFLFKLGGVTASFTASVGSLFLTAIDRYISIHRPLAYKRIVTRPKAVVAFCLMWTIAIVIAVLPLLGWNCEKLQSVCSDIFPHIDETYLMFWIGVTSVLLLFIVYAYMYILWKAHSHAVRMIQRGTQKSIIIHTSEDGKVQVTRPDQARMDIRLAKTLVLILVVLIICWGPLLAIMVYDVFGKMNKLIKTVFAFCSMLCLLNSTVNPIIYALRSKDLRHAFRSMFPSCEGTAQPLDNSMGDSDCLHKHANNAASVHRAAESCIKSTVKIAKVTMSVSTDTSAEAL
# Sequence of Integrin alpha-4/beta-1 (P05556 whole entry): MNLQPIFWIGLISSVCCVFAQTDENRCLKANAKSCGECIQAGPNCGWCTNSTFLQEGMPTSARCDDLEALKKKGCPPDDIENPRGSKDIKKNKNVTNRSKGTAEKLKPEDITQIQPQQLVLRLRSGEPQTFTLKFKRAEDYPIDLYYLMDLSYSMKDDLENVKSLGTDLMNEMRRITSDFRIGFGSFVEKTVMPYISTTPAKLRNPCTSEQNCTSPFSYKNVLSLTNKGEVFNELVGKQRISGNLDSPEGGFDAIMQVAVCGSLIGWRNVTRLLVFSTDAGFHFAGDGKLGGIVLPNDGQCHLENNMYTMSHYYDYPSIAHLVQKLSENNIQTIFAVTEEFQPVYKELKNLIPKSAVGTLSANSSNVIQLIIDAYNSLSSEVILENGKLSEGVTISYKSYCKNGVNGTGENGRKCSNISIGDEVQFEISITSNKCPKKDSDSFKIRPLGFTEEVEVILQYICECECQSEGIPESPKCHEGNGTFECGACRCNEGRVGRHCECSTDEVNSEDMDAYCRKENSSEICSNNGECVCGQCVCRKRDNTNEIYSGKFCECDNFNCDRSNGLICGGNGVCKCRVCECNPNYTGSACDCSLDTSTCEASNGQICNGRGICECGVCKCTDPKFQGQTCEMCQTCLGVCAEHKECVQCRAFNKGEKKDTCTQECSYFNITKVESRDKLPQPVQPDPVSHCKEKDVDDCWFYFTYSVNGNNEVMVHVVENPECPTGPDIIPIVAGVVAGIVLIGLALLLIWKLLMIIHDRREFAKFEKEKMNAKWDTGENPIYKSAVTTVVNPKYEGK
# Sequence of Integrin alpha-4/beta-1 (P13612 whole entry): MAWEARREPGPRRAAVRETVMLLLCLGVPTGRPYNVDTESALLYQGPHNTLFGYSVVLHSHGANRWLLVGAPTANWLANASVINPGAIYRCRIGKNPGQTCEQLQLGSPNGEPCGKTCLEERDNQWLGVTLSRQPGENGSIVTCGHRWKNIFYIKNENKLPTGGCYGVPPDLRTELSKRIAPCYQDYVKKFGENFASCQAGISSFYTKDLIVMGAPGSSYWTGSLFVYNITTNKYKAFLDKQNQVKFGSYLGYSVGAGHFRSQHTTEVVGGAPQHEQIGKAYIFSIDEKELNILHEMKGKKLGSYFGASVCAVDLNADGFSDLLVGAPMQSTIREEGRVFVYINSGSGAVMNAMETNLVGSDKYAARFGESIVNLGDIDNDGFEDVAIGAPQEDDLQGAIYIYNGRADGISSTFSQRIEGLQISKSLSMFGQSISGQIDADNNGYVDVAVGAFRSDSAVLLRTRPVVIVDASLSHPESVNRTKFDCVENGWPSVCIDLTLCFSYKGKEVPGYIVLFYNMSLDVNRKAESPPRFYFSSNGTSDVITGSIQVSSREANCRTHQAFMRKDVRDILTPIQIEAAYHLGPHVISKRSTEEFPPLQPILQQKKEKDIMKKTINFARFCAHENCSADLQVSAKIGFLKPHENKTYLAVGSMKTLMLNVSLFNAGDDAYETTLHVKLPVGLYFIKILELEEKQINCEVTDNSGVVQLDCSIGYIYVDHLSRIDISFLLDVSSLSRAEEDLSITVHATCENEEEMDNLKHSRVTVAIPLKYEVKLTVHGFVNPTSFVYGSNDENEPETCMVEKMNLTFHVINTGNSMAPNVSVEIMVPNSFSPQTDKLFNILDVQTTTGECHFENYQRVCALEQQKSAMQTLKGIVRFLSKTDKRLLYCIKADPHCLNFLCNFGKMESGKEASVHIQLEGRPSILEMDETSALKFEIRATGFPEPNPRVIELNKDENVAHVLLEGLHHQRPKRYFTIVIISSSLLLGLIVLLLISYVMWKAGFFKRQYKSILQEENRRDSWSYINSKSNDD
structure (smiles),measurement,setting,value
COc1cccc(OC)c1-c1ccc(C[C@H](N=C(NCC(F)(F)F)[C@@H]2CCN2S(=O)(=O)c2ccccc2)C(=O)O)cc1,IC50,Integrin alpha-4/beta-1,0.00013 µM
CS(=O)(=O)c1ccc(C(=O)Nc2ccc(Cl)c(-c3ccccn3)c2)c(Cl)c1 [VISMODEGIB],IC50,HMEC-1,41 µM
same,IC50,[1],50 µM
same,IC50,HeLa,64 µM
same,IC50,CCRF-CEM,58 µM
same,IC50,L1210,49 µM
COC(=O)c1ccc(-c2cn(-c3cccc(-c4ccccc4)c3)nn2)cc1,IC50,HMEC-1,0.62 µM
same,IC50,[1],0.42 µM
same,IC50,HeLa,1.1 µM
same,IC50,CCRF-CEM,0.92 µM
same,IC50,L1210,1.1 µM
CN(C)CCCNC(=O)c1cc(NC(=O)c2cc(/C=C/c3cc([N+](=O)[O-])cn3C)cn2C)cn1C,Kapp,[2],16.9 10^5/M
same,Kapp,[3],7.4 10^5/M
O=C(O)CC(=O)N[C@H](CS)Cc1ccccc1,Ki,Neprilysin,0.21 µM
CS(=O)(=O)c1ccc(-c2cn(-c3ccc(Cl)c(-c4ccccn4)c3)nn2)c(Cl)c1,IC50,HMEC-1,9.6 µM
same,IC50,[1],40 µM
same,IC50,HeLa,> 100 µM
same,IC50,CCRF-CEM,50 µM
same,IC50,L1210,82 µM
NC(=O)CN1CC[C@@H](N2CC(=O)N3CCC[C@H]3C2=O)C1=O,KiH,[4],0.08 nM
same,KiL,[4],69 nM
same,KiH,[5],0.19 nM
same,KiL,[5],50 nM
CCCCCn1cc(-c2nnc(C34CC5CC(CC(C5)C3)C4)o2)c(=O)c2cc(-c3ccco3)ccc21,Ratio Ki,[6],>1543
same,Ki,Cannabinoid receptor 1,> 10 µM
same,Ki,Cannabinoid receptor 2,0.0065 µM
NCCCNCCCCNC(=O)NCC(=O)NCCCCCCN=C(N)N,Survival,Mus musculus [7],48 days
same,Survival,Mus musculus [8],42 days
same,Survival,Rattus norvegicus,12 days
N=C(N)NCCCCCCNC(=O)COC(=O)NCCCCNCCCN,Survival,Mus musculus [7],58 days
same,Survival,Mus musculus [8],46 days
same,Survival,Rattus norvegicus,54 days
CC(C)C[C@H](NC(=O)[C@H](Cc1ccccc1)OC(=O)CNC(=O)CNC(=O)[C@@H](N)Cc1ccc(O)cc1)C(=O)O (H-YGG[PhLac]L-OH),Ki,[9],0.034 µM
CC(C)c1cccc(C(C)C)c1NC(=O)NCC1(c2cccc(N(C)C)c2)CCCC1,IC50,[10],0.063 µM
CC(C)C[C@@H](C(=O)NCC(N)=O)N1CC(=O)N2CCC[C@H]2C1=O,KiH,[4],0.08 nM
same,KiL,[4],120 nM
same,KiH,[5],0.12 nM
same,KiL,[5],172 nM
O=C(O)CC(=O)N[C@@H](CS)Cc1ccccc1,Ki,Neprilysin,0.0023 µM
CN(C)CCCNC(=O)c1cc(NC(=O)c2cc(NC(=O)c3cc([N+](=O)[O-])cn3C)cn2C)cn1C,Kapp,[2],8.7 10^5/M
same,Kapp,[3],3.5 10^5/M
C=CC[C@H](C(=O)NO)[C@@H](CC(C)C)C(=O)N[C@@H](Cc1ccccc1)C(=O)c1c[nH]c2ccccc12,half-life,[11],20 h
same,bioavailability,[12],12%
CC(C)C[C@H](NC(=O)[C@H](Cc1ccccc1)NC(=S)CNC(=O)CNC(=O)[C@@H](N)Cc1ccc(O)cc1)C(=O)O,Ki,[9],0.047 µM
CCN(C(C)C)S(=O)(=O)CC[C@@H]1O[C@@H]1[C@H](Cc1ccccc1)NC(=O)[C@H](CC(C)(C)S(C)(=O)=O)NC(=O)c1ccc2ccccc2n1,IC50,[13],0.0066 µM
O=C(OCc1ccc2c(c1)OCO2)c1ccc(Cl)c(Cl)c1,IC50,MDA-MB-231,≥ 200 µM
CC(C)C[C@H](NC[C@@H]1CCCN1)C(=O)NCC(N)=O,KiH,[4],0.09 nM
same,KiL,[4],73.2 nM
same,KiH,[5],0.13 nM
same,KiL,[5],60 nM
CC(C)(C)NC(=O)[C@@H]1C[C@@H]2CCCC[C@@H]2CN1C[C@@H](O)[C@H](Cc1ccccc1)NC(=O)[C@@H](NC(=O)c1ccc2ccccc2n1)[C@@H]1CCOC1,IC50,[14],0.00024 µM
same,IC95,[15],0.008 µM
CC(C)C(NC(=O)C[C@@H]1O[C@@H]1[C@H](Cc1ccccc1)NC(=O)[C@H](CC(N)=O)NC(=O)c1ccc2ccccc2n1)C(C)C,IC50,[13],0.02 µM
